Data from ChEMBL document CHEMBL1681783 (Bioorg Med Chem, 2011).

Columns and labels:
Squalene synthase = target: T1, Squalene synthase (Homo sapiens, UniProt P37268)
T1 sequence (P37268 whole entry): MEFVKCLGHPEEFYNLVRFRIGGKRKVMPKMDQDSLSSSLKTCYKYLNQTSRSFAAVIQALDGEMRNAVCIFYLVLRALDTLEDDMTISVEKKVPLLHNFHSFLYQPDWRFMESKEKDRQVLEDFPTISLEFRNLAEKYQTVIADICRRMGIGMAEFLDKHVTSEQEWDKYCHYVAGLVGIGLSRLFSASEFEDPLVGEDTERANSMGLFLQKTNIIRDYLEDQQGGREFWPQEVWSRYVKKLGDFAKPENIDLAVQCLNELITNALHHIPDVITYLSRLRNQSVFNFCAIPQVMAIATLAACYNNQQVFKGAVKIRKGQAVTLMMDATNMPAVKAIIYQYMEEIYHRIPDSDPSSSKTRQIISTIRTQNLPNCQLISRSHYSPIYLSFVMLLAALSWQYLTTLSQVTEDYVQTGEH
Description: Inhibition of squalene synthase

Rattus norvegicus = species: Rattus norvegicus; experiment: Inhibition of cholesterol synthesis in rat hepatic cells; assay type: functional, cell-based
[1] = Lipophilicity, log P of the compound; assay type: physicochemical; conditions: octanol/water

SMILES | IC50 (Squalene synthase) [nM] | IC50 (Rattus norvegicus) [nM] | logP [1]
COC(=O)CCC(=O)N(CC(C)(C)C)c1ccc(Cl)cc1C(O)c1ccccc1Cl (configuration not stated) | 1700 | – | –
CC(C)(C)CN(C(=O)CCC(=O)O)c1ccc(Cl)cc1C(O)c1ccccc1Cl (configuration not stated) | 6500 | – | –
CC(C)(C)CN(C(=O)CCC(=O)N1CCC(C(=O)O)CC1)c1ccc(Cl)cc1C(O)c1ccccc1Cl (configuration not stated) | 130 | 250 | –
CN(C)C(=O)C1CCN(C(=O)CCC(=O)N(CC(C)(C)C)c2ccc(Cl)cc2C(O)c2ccccc2Cl)CC1 (configuration not stated) | 97 | – | –
CNC(=O)C1CCN(C(=O)CCC(=O)N(CC(C)(C)C)c2ccc(Cl)cc2C(O)c2ccccc2Cl)CC1 (configuration not stated) | 1.3 | 900 | –
CC(C)(C)CN(C(=O)CCC(=O)N1CCC(C(N)=O)CC1)c1ccc(Cl)cc1C(O)c1ccccc1Cl (configuration not stated) | 280 | – | –
CCNC(=O)C1CCN(C(=O)CCC(=O)N(CC(C)(C)C)c2ccc(Cl)cc2C(O)c2ccccc2Cl)CC1 (configuration not stated) | 2.4 | – | –
CC(C)NC(=O)C1CCN(C(=O)CCC(=O)N(CC(C)(C)C)c2ccc(Cl)cc2C(O)c2ccccc2Cl)CC1 (configuration not stated) | 3.7 | 1600 | –
CCCCNC(=O)C1CCN(C(=O)CCC(=O)N(CC(C)(C)C)c2ccc(Cl)cc2C(O)c2ccccc2Cl)CC1 (configuration not stated) | 1.6 | 2000 | –
CCOC(=O)C1CCCN(C(=O)CCC(=O)N(CC(C)(C)C)c2ccc(Cl)cc2C(O)c2ccccc2Cl)C1 (configuration not stated) | 410 | – | –
CC(C)(C)CN(C(=O)CCC(=O)N1CCCC(C(=O)O)C1)c1ccc(Cl)cc1[C@H](O)c1ccccc1Cl (some centres not stated) | 20 | 270 | 2.98
CC(C)(C)CN(C(=O)CCC(=O)NCC1CCCCC1)c1ccc(Cl)cc1C(O)c1ccccc1Cl (configuration not stated) | 220 | 2600 | –
CCOC(=O)N1CCN(C(=O)CCC(=O)N(CC(C)(C)C)c2ccc(Cl)cc2C(O)c2ccccc2Cl)CC1 (configuration not stated) | 2.3 | – | –
CC(C)(C)CN(C(=O)CCC(=O)N1CCN(C(=O)OCc2ccccc2)CC1)c1ccc(Cl)cc1C(O)c1ccccc1Cl (configuration not stated) | 1.1 | – | –
CC(C)(C)CN(C(=O)CCC(=O)N1CCNCC1)c1ccc(Cl)cc1C(O)c1ccccc1Cl (configuration not stated) | 2100 | – | –
CC(C)(C)CN(C(=O)CCC(=O)N1CCN(S(C)(=O)=O)CC1)c1ccc(Cl)cc1C(O)c1ccccc1Cl (configuration not stated) | 260 | – | –
CCOC(=O)CN1CCN(C(=O)CCC(=O)N(CC(C)(C)C)c2ccc(Cl)cc2C(O)c2ccccc2Cl)CC1 (configuration not stated) | 7.9 | 1400 | –
CCOC(=O)C1CCN(C(=O)CCCC(=O)N(CC(C)(C)C)c2ccc(Cl)cc2C(O)c2ccccc2Cl)CC1 (configuration not stated) | > 6000 | – | –
CCOC(=O)C1CCN(C(=O)CC(=O)N(CC(C)(C)C)c2ccc(Cl)cc2C(O)c2ccccc2Cl)CC1 (configuration not stated) | > 600 | – | –
CCOC(=O)C1CCN(C(=O)CCC(=O)N(C)c2ccc(Cl)cc2C(O)c2ccccc2Cl)CC1 (configuration not stated) | 21000 | – | –
CCCN(C(=O)CCC(=O)N1CCC(C(=O)OCC)CC1)c1ccc(Cl)cc1C(O)c1ccccc1Cl (configuration not stated) | 600 | – | –

SMILES | IC50 (Squalene synthase) [nM] | IC50 (Rattus norvegicus) [nM] | logP [1]
CCOC(=O)C1CCN(C(=O)CCC(=O)N(CC(C)(C)C)c2ccc(Cl)cc2Cc2ccccc2Cl)CC1 | 650 | – | –
CCOC(=O)C1CCN(C(=O)CCC(=O)N(CC(C)(C)C)c2ccc(Cl)cc2CO)CC1 | > 6000 | – | –
CCOC(=O)C1CCN(C(=O)CCC(=O)N(CC(C)(C)C)c2ccc(Cl)cc2C(O)c2ccccc2)CC1 (configuration not stated) | 770 | – | –
CCOC(=O)C1CCN(C(=O)CCC(=O)N(CC(C)(C)C)c2ccc(Cl)cc2C(O)c2ccccc2F)CC1 (configuration not stated) | 0.45 | – | –
CCOC(=O)C1CCN(C(=O)CCC(=O)N(CC(C)(C)C)c2ccc(Cl)cc2C(O)c2cccc(F)c2Cl)CC1 (configuration not stated) | 7.2 | – | –
CCOC(=O)C1CCN(C(=O)CCC(=O)N(CC(C)(C)C)c2ccc(Cl)cc2C(O)c2ccc(F)cc2Cl)CC1 (configuration not stated) | 2 | – | –
CCOC(=O)C1CCN(C(=O)CCC(=O)N(CC(C)(C)C)c2ccc(Cl)cc2C(O)c2cc(F)ccc2Cl)CC1 (configuration not stated) | > 600 | – | –
CCOC(=O)C1CCN(C(=O)CCC(=O)N(CC(C)(C)C)c2ccc(Cl)cc2C(O)c2ccccc2OC)CC1 (configuration not stated) | 1.1 | – | –
CCOC(=O)C1CCN(C(=O)CCC(=O)N(CC(C)(C)C)c2ccc(Cl)cc2C(O)c2cccc(OC)c2)CC1 (configuration not stated) | 210 | – | –
CCOC(=O)C1CCN(C(=O)CCC(=O)N(CC(C)(C)C)c2ccc(Cl)cc2C(O)c2ccccc2OCC)CC1 (configuration not stated) | 410 | – | –
CCOC(=O)C1CCN(C(=O)CCC(=O)N(CC(C)(C)C)c2ccc(Cl)cc2C(O)c2cccc(OC)c2OC)CC1 (configuration not stated) | 1.1 | – | –
CCOC(=O)C1CCN(C(=O)CCC(=O)N(CC(C)(C)C)c2ccc(Cl)cc2C(O)c2cccc3c2OCCO3)CC1 (configuration not stated) | 10 | – | –
CCOC(=O)C1CCCN(C(=O)CCC(=O)N(CC(C)(C)C)c2ccc(Cl)cc2C(O)c2ccccc2F)C1 (configuration not stated) | > 600 | – | –
CCOC(=O)C1CCCN(C(=O)CCC(=O)N(CC(C)(C)C)c2ccc(Cl)cc2C(O)c2cccc(F)c2Cl)C1 (configuration not stated) | 28 | – | –
CCOC(=O)C1CCCN(C(=O)CCC(=O)N(CC(C)(C)C)c2ccc(Cl)cc2C(O)c2ccc(F)cc2Cl)C1 (configuration not stated) | > 600 | – | –
CCOC(=O)C1CCCN(C(=O)CCC(=O)N(CC(C)(C)C)c2ccc(Cl)cc2C(O)c2cc(F)ccc2Cl)C1 (configuration not stated) | > 600 | – | –
CCOC(=O)C1CCCN(C(=O)CCC(=O)N(CC(C)(C)C)c2ccc(Cl)cc2C(O)c2ccccc2OC)C1 (configuration not stated) | 2.6 | – | –
CCOC(=O)C1CCCN(C(=O)CCC(=O)N(CC(C)(C)C)c2ccc(Cl)cc2C(O)c2cccc(OC)c2)C1 (configuration not stated) | > 600 | – | –
CCOC(=O)C1CCCN(C(=O)CCC(=O)N(CC(C)(C)C)c2ccc(Cl)cc2C(O)c2ccccc2OCC)C1 (configuration not stated) | > 600 | – | –
CCOC(=O)C1CCCN(C(=O)CCC(=O)N(CC(C)(C)C)c2ccc(Cl)cc2C(O)c2cccc(OC)c2OC)C1 (configuration not stated) | 1.3 | – | –
CCOC(=O)C1CCCN(C(=O)CCC(=O)N(CC(C)(C)C)c2ccc(Cl)cc2C(O)c2cccc3c2OCCO3)C1 (configuration not stated) | 13 | – | –

SMILES | IC50 (Squalene synthase) [nM] | IC50 (Rattus norvegicus) [nM] | logP [1]
CC(C)(C)CN(C(=O)CCC(=O)N1CCC(C(=O)O)CC1)c1ccc(Cl)cc1C(O)c1ccccc1F (configuration not stated) | 1700 | > 10000 | –
CC(C)(C)CN(C(=O)CCC(=O)N1CCC(C(=O)O)CC1)c1ccc(Cl)cc1C(O)c1cccc(F)c1Cl (configuration not stated) | 17 | 920 | –
CC(C)(C)CN(C(=O)CCC(=O)N1CCC(C(=O)O)CC1)c1ccc(Cl)cc1C(O)c1ccc(F)cc1Cl (configuration not stated) | > 600 | – | –
CC(C)(C)CN(C(=O)CCC(=O)N1CCC(C(=O)O)CC1)c1ccc(Cl)cc1C(O)c1cc(F)ccc1Cl (configuration not stated) | > 600 | – | –
COc1ccccc1C(O)c1cc(Cl)ccc1N(CC(C)(C)C)C(=O)CCC(=O)N1CCC(C(=O)O)CC1 (configuration not stated) | 1.7 | 600 | –
COc1cccc(C(O)c2cc(Cl)ccc2N(CC(C)(C)C)C(=O)CCC(=O)N2CCC(C(=O)O)CC2)c1 (configuration not stated) | > 600 | – | –
CCOc1ccccc1C(O)c1cc(Cl)ccc1N(CC(C)(C)C)C(=O)CCC(=O)N1CCC(C(=O)O)CC1 (configuration not stated) | > 600 | – | –
COc1cccc(C(O)c2cc(Cl)ccc2N(CC(C)(C)C)C(=O)CCC(=O)N2CCC(C(=O)O)CC2)c1OC (configuration not stated) | 2.8 | 1600 | –
CC(C)(C)CN(C(=O)CCC(=O)N1CCC(C(=O)O)CC1)c1ccc(Cl)cc1C(O)c1cccc2c1OCCO2 (configuration not stated) | 7 | 230 | –
CC(C)(C)CN(C(=O)CCC(=O)N1CCCC(C(=O)O)C1)c1ccc(Cl)cc1C(O)c1ccccc1 (configuration not stated) | – | – | 2.42
CC(C)(C)CN(C(=O)CCC(=O)N1CCCC(C(=O)O)C1)c1ccc(Cl)cc1C(O)c1ccccc1F (configuration not stated) | 290 | 200 | 2.52
CC(C)(C)CN(C(=O)CCC(=O)N1CCCC(C(=O)O)C1)c1ccc(Cl)cc1C(O)c1cccc(F)c1Cl (configuration not stated) | 8.4 | 1300 | 3
CC(C)(C)CN(C(=O)CCC(=O)N1CCCC(C(=O)O)C1)c1ccc(Cl)cc1C(O)c1ccc(F)cc1Cl (configuration not stated) | 190 | – | 3.28
CC(C)(C)CN(C(=O)CCC(=O)N1CCCC(C(=O)O)C1)c1ccc(Cl)cc1C(O)c1cc(F)ccc1Cl (configuration not stated) | > 600 | – | 2.8
COc1ccccc1C(O)c1cc(Cl)ccc1N(CC(C)(C)C)C(=O)CCC(=O)N1CCCC(C(=O)O)C1 (configuration not stated) | – | 84 | 2.81
COc1cccc(C(O)c2cc(Cl)ccc2N(CC(C)(C)C)C(=O)CCC(=O)N2CCCC(C(=O)O)C2)c1 (configuration not stated) | > 600 | – | 2.35
CCOc1ccccc1C(O)c1cc(Cl)ccc1N(CC(C)(C)C)C(=O)CCC(=O)N1CCCC(C(=O)O)C1 (configuration not stated) | > 600 | – | 3.32
COc1cccc(C(O)c2cc(Cl)ccc2N(CC(C)(C)C)C(=O)CCC(=O)N2CCCC(C(=O)O)C2)c1OC (configuration not stated) | 2 | 1500 | 2.25
CC(C)(C)CN(C(=O)CCC(=O)N1CCCC(C(=O)O)C1)c1ccc(Cl)cc1C(O)c1cccc2c1OCCO2 (configuration not stated) | 6.8 | 170 | 1.87
